In patent US6410480B1, “Herbicidally active 3-hydroxy-4-aryl-5-oxopyrazoline derivatives” (Syngenta Crop Protection, Inc., priority 1998, dated 2002):

Key:
Type in all cases: in vivo
Alopecurus [1] = assay: Example B1: pre-emergence herbicidal action, comparison with prior art; conditions: 500 g of ai/ha, 3 weeks after application, scale 1-9
Source text: (§1) Monocotyledonous and dicotyledonous weeds are sown in standard soil in plastic pots. Immediately after sowing, the test substances are applied (500 l of water/ha) as an aqueous suspension (prepared using a 25% wettable powder (Example F3, b)) or as an emulsion (prepared using a 25% emulsion concentrate (Example F1, c)). The application rate is 500 g of active substance/ha. The test plants are subsequently grown under optimum conditions in a greenhouse. 3 weeks after the application, evaluation is carried out using a nine-level scale of ratings (1=complete damage, 9=no effect). Ratings of 1 to 4 (in particular 1 to 3) mean a good to very good herbicidal action. Test plants: Alopecurus (Alo), Avena (Ave), Lolium (Lot), Setaria (Set), Panicum (Pan), Sorghum (Sor), Digitaria (Dig), Echinocloa (Ech) and Brachiaria (Bra).

Avena [2] = assay: as above; conditions: 500 g of ai/ha, 3 weeks after application, scale 1-9
Source text: as §1

Brachiaria [3] = assay: as above; conditions: 500 g of ai/ha, 3 weeks after application, scale 1-9
Source text: as §1

Digitaria [4] = assay: as above; conditions: 500 g of ai/ha, 3 weeks after application, scale 1-9
Source text: as §1

Echinocloa [5] = assay: as above; design: key: 1=complete damage; 9=no effect; Ratings of 1 to 4 (in particular 1 to 3) mean a good to very good herbicidal action; conditions: 500 g of ai/ha, 3 weeks after application, scale 1-9
Source text: as §1

Lolium [6] = assay: as above; design: key: 1=complete damage; 9=no effect; Ratings of 1 to 4 (in particular 1 to 3) mean a good to very good herbicidal action; conditions: 500 g of ai/ha, 3 weeks after application, scale 1-9
Source text: as §1

Panicum [7] = assay: as above; design: key: 1=complete damage; 9=no effect; Ratings of 1 to 4 (in particular 1 to 3) mean a good to very good herbicidal action; conditions: 500 g of ai/ha, 3 weeks after application, scale 1-9
Source text: as §1

Setaria [8] = assay: as above; design: key: 1=complete damage; 9=no effect; Ratings of 1 to 4 (in particular 1 to 3) mean a good to very good herbicidal action; conditions: 500 g of ai/ha, 3 weeks after application, scale 1-9
Source text: as §1

Sorghum [9] = assay: as above; design: key: 1=complete damage; 9=no effect; Ratings of 1 to 4 (in particular 1 to 3) mean a good to very good herbicidal action; conditions: 500 g of ai/ha, 3 weeks after application, scale 1-9
Source text: as §1

Alopecurus [10] = assay: Example B2: post-emergence herbicidal action, comparison with prior art; conditions: 3- to 6-leaf stage, 500 g of ai/ha, 3 weeks after application, scale 1-9
Method: (§2) Monocotyledonous and dicotyledonous weeds are grown in standard soil in plastic pots under greenhouse conditions. The test substances are applied at the 3- to 6-leaf stage of the test plants. The test substances are applied (500 l of water/ha) as an aqueous suspension (prepared using a 25% wettable powder (Example F3, b)) or as an emulsion (prepared using a 25% emulsion concentrate (Example F1, c)) at an application rate of 500 g of active substance/ha. 3 weeks after the application, evaluation is carried out using a nine-level scale of ratings (1=complete damage, 9=no effect). Ratings of 1 to 4 (in particular 1 to 3) mean a good to very good herbicidal action. Test plants: Alopecurus (Alo), Avena (Ave), Lolium (Lol), Setaria (Set), Panicum (Pan), Sorghum (Sor), Digitaria (Dig), Echinocloa (Ech) and Brachiaria (Bra).

Avena [11] = assay: as above; design: key: 1=complete damage; 9=no effect; Ratings of 1 to 4 (in particular 1 to 3) mean a good to very good herbicidal action; conditions: 3- to 6-leaf stage, 500 g of ai/ha, 3 weeks after application, scale 1-9
Method: as §2

Brachiaria [12] = assay: as above; design: key: 1=complete damage; 9=no effect; Ratings of 1 to 4 (in particular 1 to 3) mean a good to very good herbicidal action; conditions: 3- to 6-leaf stage, 500 g of ai/ha, 3 weeks after application, scale 1-9
Method: as §2

Digitaria [13] = assay: as above; design: key: 1=complete damage; 9=no effect; Ratings of 1 to 4 (in particular 1 to 3) mean a good to very good herbicidal action; conditions: 3- to 6-leaf stage, 500 g of ai/ha, 3 weeks after application, scale 1-9
Method: as §2

Echinocloa [14] = assay: as above; design: key: 1=complete damage; 9=no effect; Ratings of 1 to 4 (in particular 1 to 3) mean a good to very good herbicidal action; conditions: 3- to 6-leaf stage, 500 g of ai/ha, 3 weeks after application, scale 1-9
Method: as §2

Lolium [15] = assay: as above; design: key: 1=complete damage; 9=no effect; Ratings of 1 to 4 (in particular 1 to 3) mean a good to very good herbicidal action; conditions: 3- to 6-leaf stage, 500 g of ai/ha, 3 weeks after application, scale 1-9
Method: as §2

Panicum [16] = assay: as above; design: key: 1=complete damage; 9=no effect; Ratings of 1 to 4 (in particular 1 to 3) mean a good to very good herbicidal action; conditions: 3- to 6-leaf stage, 500 g of ai/ha, 3 weeks after application, scale 1-9
Method: as §2

Setaria [17] = assay: as above; design: key: 1=complete damage; 9=no effect; Ratings of 1 to 4 (in particular 1 to 3) mean a good to very good herbicidal action; conditions: 3- to 6-leaf stage, 500 g of ai/ha, 3 weeks after application, scale 1-9
Method: as §2

Sorghum [18] = assay: as above; design: key: 1=complete damage; 9=no effect; Ratings of 1 to 4 (in particular 1 to 3) mean a good to very good herbicidal action; conditions: 3- to 6-leaf stage, 500 g of ai/ha, 3 weeks after application, scale 1-9
Method: as §2

Avena [19] = assay: Example B3: pre-emergence herbicidal action of compounds of the invention; design: key: 1=complete damage; 9=no effect; Ratings of 1 to 4 (in particular 1 to 3) mean a good to very good herbicidal action; conditions: 500 g of active substance/ha, 3 weeks after application, scale 1-9
Method: as §1, with “grown” for “sown”, “Directly” for “Immediately”, “greenhouse” for “greenhouse.”, “plants:” for “plants: Alopecurus (Alo),”, “(Lol),” for “(Lot),”, “(Set).” for “(Set), Panicum (Pan), Sorghum (Sor), Digitaria (Dig), Echinocloa (Ech) and Brachiaria (Bra).”

Lolium [20] = assay: as above; design: key: 1=complete damage; 9=no effect; Ratings of 1 to 4 (in particular 1 to 3) mean a good to very good herbicidal action; conditions: 500 g of active substance/ha, 3 weeks after application, scale 1-9
Method: as §1, with “grown” for “sown”, “Directly” for “Immediately”, “greenhouse” for “greenhouse.”, “plants:” for “plants: Alopecurus (Alo),”, “(Lol),” for “(Lot),”, “(Set).” for “(Set), Panicum (Pan), Sorghum (Sor), Digitaria (Dig), Echinocloa (Ech) and Brachiaria (Bra).”

Setaria [21] = assay: as above; design: key: 1=complete damage; 9=no effect; Ratings of 1 to 4 (in particular 1 to 3) mean a good to very good herbicidal action; conditions: 500 g of active substance/ha, 3 weeks after application, scale 1-9
Method: as §1, with “grown” for “sown”, “Directly” for “Immediately”, “greenhouse” for “greenhouse.”, “plants:” for “plants: Alopecurus (Alo),”, “(Lol),” for “(Lot),”, “(Set).” for “(Set), Panicum (Pan), Sorghum (Sor), Digitaria (Dig), Echinocloa (Ech) and Brachiaria (Bra).”

Avena [22] = assay: Example B4: post-emergence herbicidal action of compounds of the invention; design: key: 1=complete damage; 9=no effect; Ratings of 1 to 4 (in particular 1 to 3) mean a good to very good herbicidal action; conditions: 3- to 6-leaf stage, 250 g of active substance/ha, 3 weeks after application, scale 1-9
Method: as §2, with “of 250” for “of 500”, “plants:” for “plants: Alopecurus (Alo),”, “Setaria (Set).” for “Setaria (Set), Panicum (Pan), Sorghum (Sor), Digitaria (Dig), Echinocloa (Ech) and Brachiaria (Bra).”

Lolium [23] = assay: as above; design: key: 1=complete damage; 9=no effect; Ratings of 1 to 4 (in particular 1 to 3) mean a good to very good herbicidal action; conditions: 3- to 6-leaf stage, 250 g of active substance/ha, 3 weeks after application, scale 1-9
Method: as §2, with “of 250” for “of 500”, “plants:” for “plants: Alopecurus (Alo),”, “Setaria (Set).” for “Setaria (Set), Panicum (Pan), Sorghum (Sor), Digitaria (Dig), Echinocloa (Ech) and Brachiaria (Bra).”

Setaria [24] = assay: as above; design: key: 1=complete damage; 9=no effect; Ratings of 1 to 4 (in particular 1 to 3) mean a good to very good herbicidal action; conditions: 3- to 6-leaf stage, 250 g of active substance/ha, 3 weeks after application, scale 1-9
Method: as §2, with “of 250” for “of 500”, “plants:” for “plants: Alopecurus (Alo),”, “Setaria (Set).” for “Setaria (Set), Panicum (Pan), Sorghum (Sor), Digitaria (Dig), Echinocloa (Ech) and Brachiaria (Bra).”

Structure (SMILES)	Pre-emergence action, Ave (rating) (Avena [19])	Pre-emergence action, Lol (rating) (Lolium [20])	Pre-emergence action, Set (rating) (Setaria [21])	Post-emergence action, Ave (rating) (Avena [22])	Post-emergence action, Lol (rating) (Lolium [23])	Post-emergence action, Set (rating) (Setaria [24])	further results
Cc1cc(C)c(-c2c(O)n3n(c2=O)CCOCC3)c(C)c1 [1.001]	4	1	1	1	1	2	Pre-emergence action, Alo (rating) (Alopecurus [1]): 3; Pre-emergence action, Ave (rating) (Avena [2]): 4; Pre-emergence action, Bra (rating) (Brachiaria [3]): 2; Pre-emergence action, Dig (rating) (Digitaria [4]): 2; Pre-emergence action, Ech (rating) (Echinocloa [5]): 1; Pre-emergence action, Lol (rating) (Lolium [6]): 1; Pre-emergence action, Pan (rating) (Panicum [7]): 1; Pre-emergence action, Set (rating) (Setaria [8]): 1; Pre-emergence action, Sor (rating) (Sorghum [9]): 1; Post-emergence action, Alo (rating) (Alopecurus [10]): 2; Post-emergence action, Ave (rating) (Avena [11]): 1; Post-emergence action, Bra (rating) (Brachiaria [12]): 1; Post-emergence action, Dig (rating) (Digitaria [13]): 1; Post-emergence action, Ech (rating) (Echinocloa [14]): 1; Post-emergence action, Lol (rating) (Lolium [15]): 1; Post-emergence action, Pan (rating) (Panicum [16]): 1; Post-emergence action, Set (rating) (Setaria [17]): 1; Post-emergence action, Sor (rating) (Sorghum [18]): 1
CCc1cc(C)cc(C)c1-c1c(O)n2n(c1=O)CCOCC2 [1.004]	1	1	2				
CCc1cc(C)cc(C)c1-c1c(OC(=O)C(C)(C)C)n2n(c1=O)CCOCC2 [1.005]				1	2	2	
CCc1cc(C)cc(CC)c1-c1c(OC(=O)C(C)(C)C)n2n(c1=O)CCOCC2 [1.008]	1	1	1				
C#Cc1cc(C)cc(C)c1-c1c(OC(=O)C(C)(C)C)n2n(c1=O)CCOCC2 [1.016]				3	2	2	
